Legend:
[1] = test system: isogenic CHO cell line with low RFC expression; assay: Folate competition, IC50 in CHO cells with low RFC expression; assay type: cell-based; conditions: Cricetulus griseus, folic acid free RPMI, 10 vol. % dialyzed FBS, 25 nM 5-formyl THF
Protocol: (§1) Compound 1 was tested relative to pemetrexed and methotrexate against two isogenic CHO cell lines with low and high RFC expression levels. […] Table II provides the IC50 values for Compound 1, Pemetrexed and Methotrexate.

[2] = test system: isogenic CHO cell line with high RFC expression; assay: Folate competition, IC50 in CHO cells with high RFC expression; assay type: cell-based; conditions: Cricetulus griseus, folic acid free RPMI, 10 vol. % dialyzed FBS, 25 nM 5-formyl THF
Protocol: as §1

[3] = test system: HCT116 cell line; assay: Cell growth inhibition by resazurin, HCT116; assay type: cell-based; conditions: HCT116, 4 days, with or without hypoxanthine and thymidine supplement, FIG. 1A
Protocol: (§2) Cells of (a) HCT116 and (b) Panc1 cell lines were each seeded in 96-well plates at the density of 3000/well in 80 μL of DMEM media supplemented with 10 vol % dialyzed FBS. The next day, 10 μL of media with or without hypoxanthine (1 mM) and thymidine (160 μM) was added to each well. 10 μL of Compound 1 diluted in media as 10× stock of desired concentration was also added. Relative cell number is measured by resazurin right before and 4 days after the addition of Compound 1. Namely, resazurin dissolved in phosphate-buffered saline (PBS) was added to each well to a final concentration of 10 μg/mL followed by 1-hour incubation at 37° C. Fluorescence (excitation 550 nm, emission 590 nm) is then measured by a microplate reader. […] Inhibition of growth in both cancer cell lines was achieved via disruption of purine and thymine synthesis.

[4] = test system: KPC pancreatic ductal adenocarcinoma allograft; assay: KPC pancreatic ductal adenocarcinoma allograft; assay type: in vivo, male C57BL/6 mice; conditions: 5 mg/kg intraperitoneally once daily
Protocol: Tumor harvested from K-ras^LSL.G12D/+; Trp53^R172H/+; Pdx-1-Cre (KPC) mice was passaged at the flank of C57BL/6 subcutaneously. To initiate allografts, subcutaneous tumors were harvested and minced in DMEM media, mixed with equal volume of Matrigel basement membrane matrix (Corning 354234), and injected subcutaneously at the flank of male C57BL/6 mice. Tumors were measured twice per week. Once the average tumor volume reaches 100 mm^3, Compound 1 (5 mg/kg body weight, dissolved in 10% 2-hydroxypropyl-β-cyclodextrin) and vehicle (10% 2-hydroxypropyl-β-cyclodextrin, 10 mL/kg body weight) were injected intraperitoneally once daily, with continued tumor monitoring. At the end of experiment, mice were euthanized by cervical dislocation after being fasted for 6 hr. Tumors are collected into aluminum foil, clamped by a Wollenberg clamp pre-cooled in liquid N2, and kept cold in liquid N2.
To extract metabolites from tumor samples, tumors were first ground by a Cryomill (Retsch). About 10 mg of ground tissue is measured and extracted by extraction buffer (acetonitrile:methanol:H2O=2:2:1, then supplemented with 0.5 vol % formic acid) at the ratio of 370 μL buffer per 10 mg tissue. […] Metabolite levels were measured by Q Exactive Plus Hybrid Quadrupole-Orbitrap coupled with […] (HILIC) operating in the negative ionization mode.

[5] = test system: MC38 mouse colon adenocarcinoma allograft; assay: MC38 mouse colon adenocarcinoma allograft; assay type: in vivo, female C57BL/6 mice; conditions: 5 mg/kg intraperitoneally once daily, FIG. 5A
Protocol: To initiate allografts, 2×10^6 MC38 cells were injected subcutaneously at the flank of female C57BL/6 mice. Once the average tumor volume reaches 50 mm^3, IRS-17 (5 mg/kg body weight, dissolved in 10% 2-hydroxypropyl-β-cyclodextrin) and vehicle (10% 2-hydroxypropyl-β-cyclodextrin, 10 mL/kg body weight) are injected intraperitoneally once daily. After the final dose, mice were fasted for 12 hr. Then blood was collected by tail snip into a tube without anticoagulants. Serum was collected by taking the supernatant after centrifugation. Mice were then euthanized by cervical dislocation, and tumors are harvested and frozen in liquid N2. Tumor metabolites were extracted and measured as previously described in C. To extract serum metabolites, 2.5 μL of serum was added into 80 μL of methanol. Samples were centrifuged (16000 g for 10 min) at 4° C., and supernatant is collected.

[6] = test system: HCT116 colorectal carcinoma xenograft; assay: HCT116 colorectal carcinoma xenograft; assay type: in vivo, female  mice; conditions: 5 mg/kg intraperitoneally once daily
[7] = test system: Panc1 cell line; assay: Cell growth inhibition by resazurin, Panc1; assay type: cell-based; conditions: Panc1, 4 days, with or without hypoxanthine and thymidine supplement, FIG. 1B
Protocol: as §2

| SMILES | IC50 [1] [nM] | IC50 [2] [nM] | cell growth [3] | change in tumor volume over time ([4]; FIG. 3A) | tumor doubling time ([4]; FIG. 3B) | tumor volume over the treatment period [5] | change in tumor volume over time ([6]; FIG. 4A) | tumor doubling time ([6]; FIG. 4B) | cell growth [7] |
| --- | --- | --- | --- | --- | --- | --- | --- | --- | --- |
| CN(Cc1cnc2nc(N)nc(N)c2n1)c1ccc(C(=O)N[C@@H](CCC(=O)O)C(=O)O)cc1 [Methotrexate] | 4000 | 480 |  |  |  |  |  |  |  |
| C#Cc1ccc(Cn2ccc3c4c(N)nc(N)nc4ccc32)cc1 [Compound 1] | < 0.002 | 0.06 | inhibited cell growth | substantially inhibited tumor growth | protracted tumor doubling time | some reduction in tumor volume | substantially inhibited tumor growth | protracted tumor doubling time | inhibited cell growth |
| Nc1nc2[nH]cc(CCc3ccc(C(=O)N[C@@H](CCC(=O)O)C(=O)O)cc3)c2c(=O)[nH]1 [Pemetrexed] | 800 | 150 |  |  |  |  |  |  |  |

Reference: US20230242540A1, “COMPOUNDS HAVING ANTICANCER ACTIVITY” (The Trustees of Princeton University, priority 2020, published 2023)
